Assay results taken from US11414454B2, “Compositions, methods, and systems for affinity-based protein identification and purification” (Auctus Biologies, Inc., priority 2017, dated 2022).
Where “and” joins values, the source holds several entries; their conditions need not be identical. Equal values may be shown once. Read-outs that look alike come from different tables or passages of the source.

Assays:
RPtag(large) = test: pH profile of Kd by fluorescence anisotropy; format: binding, Thermoanaerobacter tengcongensis; settings: buffers pH 1.5 to 13
Procedure: The Kds of Nd8,Cd4 for RPtag(large) was measured in the presence of buffers of different pHs ranging from 1.5 to 13.
For these experiments, Kds were measured by fluorescence anisotropy as described above in the following buffers, all at 100 mM with 0.005% Tween 20: glycine pH 1.5, glycine pH 2.0, glycine pH 3.0, acetate pH 4.5, 2-(N-morpholino)ethanesulfonic acid pH 6.0, tris pH 7.0, tris pH 7.5, tris pH 8.0, tris pH 8.5, borate pH 10.0, phosphate pH 11.5, phosphate pH 13.0.

RPtag (large) [1] = test: Association/dissociation kinetics of RPtag (small) peptides with RPtag (large) by fluorescence anisotropy; format: binding, Thermoanaerobacter tengcongensis
Procedure: Panel a depicts representative association rate kinetics traces varying native RPtag small. Rhodamine labeled RPtag small at the indicated concentration was incubated with unlabeled RPtag large and the association measured by fluorescence anisotropy. L-S complex concentration was calculated by the equation (r−rmin)/(rmax−rmin)*[S] where r is the measured anisotropy, rmin is the anisotropy in the absence of any RPtag large, rmax is the anisotropy measured in the presence of at saturating RPtag large, and [S] is the total concentration of RPtag small used in the experiment. […] Dashed cyan lines are simulations of the mechanism shown in f using the rate constants detailed herein. The concentrations in the simulations were multiplied by a correction factor of 0.925, which is well within the 90% purity specification of the purchased peptide.
LS complex was performed by incubating 1000 nM RPtag large with the indicated concentrations of rhodamine labeled RPtag small. At the start of the experiment, 0.1 mM unlabeled native RPtag small was added and fluorescence anisotropy monitored. Data processing was done as in panel a, except the red fits were to the single exponential decay equation y=y0+A*exp(−b*t). As expected, the initial dissociation rates were linear with respect to the LS complex.
Fitting to a line yields a rate constant (koff)=0.0091 min^−1 (FIG. 9 panel e). In good agreement, when the kinetics are fit with a first order rate law, a rate constant of 0.012±0.002 min^−1 (n=15) was observed. […] Panel e is a graph of the initial rates of the traces represented in d. Slope of the fit line is 0.0091 min^−1. Data are mean±SE (n=3).
The library of mutant RPtag(small) peptides, described above, was next analyzed to measure off rates (koff). The on rate was also calculated from measured koff and Kd (S*-LS transition), except instead of using unlabeled native peptide as the competitor, we used unlabeled Nd2,P5A,E18A (the tightest binding RPtag(small) peptide identified). […] However, there were notable exceptions. […] This indicates, without wishing to be limited, that P5 may constrain the structure of the peptide. The increased flexibility imparted to the peptide by the P5A mutation may decrease the energy barrier required for binding/unbinding.

[2] = test system: Bovine Serum Albumin (BSA); format: binding
Procedure: (§1) 50 nM of RP-Tag Small (see Sequence 3, below) with an N-terminal Rhodamine B label was incubated with increasing concentrations of either RP-Tag Large (see Sequence 2) or Bovine Serum Albumin (BSA) in 50 mM Tris pH 8.0, 150 mM NaCl, 10 mM 2-mercaptoethanol, and 0.005% Tween 20 for 5 min in black 96-well plates at room temperature.
(§2) Anisotropy was then measured, and a Kd calculated by fitting the data to the equation f=y0+(ymax−y0)*(Ptot+x+Kd−sqrt((Ptot+x+Kd)^2−4*Ptot*x))/(2*Ptot), where y0 is the baseline anisotropy, ymax is the maximum anisotropy, Ptot is the fixed concentration of labeled peptide used, x is the variable concentration of protein used, and Kd is the measured Kd.
(§3) The indicated concentrations of RPtag (large) and an anti-His tag antibody (4E3D10H2/E3 purchased from ThermoFisher Scientific) were incubated with 1 nM rhodamine labeled native RPtag (small) peptide and 6×His peptide (Rhodamine-GHHHHHH), respectively, and fluorescence anisotropy measured. BSA incubated with native rhodamine labeled RPtag(small) is included as a control for non-specific binding. Kd's were calculated according to the equation f=y0+(ymax−y0)*(Ptot+x+Kd−sqrt((Ptot+x+Kd)^2−4*Ptot*x))/(2*Ptot), where y0 is the baseline anisotropy, ymax is the maximum anisotropy, Ptot is the fixed concentration of labeled peptide used, x is the variable concentration of protein used, and Kd is the measured Kd. We measured a Kd of 0.2±0.1 nM for RPtag(large) binding RPtag(small), and a Kd of 6±1 nM for the antibody/6×His tag pair.

[3] = molecular target: Bovine Serum Albumin (BSA) (Bos taurus, UniProt P02769); format: binding; settings: fluorescence anisotropy, rhodamine labeled peptide, up to 10 μM BSA
Procedure: as §1, §2, §3

[4] = test system: immobilized RPtag(large) column; test: Native elution from immobilized RPtag(large) column (3 M NaCl binding, 3 M imidazole elution); design: species or system Thermoanaerobacter tengcongensis; settings: bound in 100 mM Tris pH 8.0, 3 M NaCl, 0.005% Tween20
Description: Because of the observed stabilizing character of NaCl and destabilizing character of imidazole on Nd8Cd4 binding, these reagents, among others, were incorporated into a novel buffering system for use with the disclosed proteins, peptides, systems, and methods. In particular, the effect of this novel buffer on binding of RPtag (small) Nd8Cd4 to an immobilized RPtag(large) column was studied. These experiments included eluting both (1) rhodamine labeled peptide and (2) N-terminally RPtag(small) Nd8Cd4 tagged with tagRFP from a column under native conditions. Generally, native conditions is taken to mean at or near biological conditions under which many proteins are folded, e.g. pH 4-9 at moderate temperature (4° C.-30° C.) in the absence of denaturants (e.g. guanidine hydrochloride, urea, SDS). This is in contrast to denaturing conditions, which generally rely on extreme pH (e.g. ≤2) denaturants, or high temperature to unfold proteins.
Briefly, columns, as described above, were first equilibrated with 10 mL 100 mM Tris pH 8.0, 3 M NaCl, 0.005% Tween20. Next, 1 mL of 10 uM rhodamine-tagged Nd8Cd4 or tagRFP containing an N-terminal RPtag (small) Nd8Cd4 tag was applied in the same buffer. The column was then washed with 10 mL of the same buffer. Finally, bound target molecules were eluted with 10 mL of 100 mM Tris pH 8.0, 3 M imidazole, 0.005% Tween20.

RPtag (large) [5] = test: Fluorescence anisotropy Kd of rhodamine labeled RPtag (small) peptides for RPtag (large); format: binding, Thermoanaerobacter tengcongensis; settings: Example 6, 1 nM rhodamine labeled native RPtag (small)
Procedure: as §1, §2, §3
Regarding the studies shown in FIG. 14, increasing concentrations of unlabeled RPtag large with the indicated mutations (native, f137d, and f137e) were incubated for 1 h with 1 nM rhodamine labeled RPtag small peptide and the fluorescence anisotropy was measured. Resultant curves were fit with the equation f=y0+(ymax−y0)*(Ptot+x+Kd−sqrt((Ptot+x+Kd)^2−4*Ptot*x))/(2*Ptot), where y0 is the baseline anisotropy, ymax is the maximum anisotropy, Ptot is the fixed concentration of labeled peptide used, x is the variable concentration of protein used, and Kd is the measured Kd. Data are presented here as Ka=1/Kd. Log transformed Ka's were then compared by one-way ANOVA with Holm-Sidak post hoc correction. ***p<0.001, **p<0.01, *p<0.05. data are mean±SEM (n=3-4). Buffer was 50 mM Tris pH 8.0, 0.005% tween20. Proteins were expressed and purified by single step NiNTA chromatography as before. Peptides were synthesized solid-state and handled as previous.

RPtag (large) [6] = test: Buffer additive screen, Kd by fluorescence anisotropy; format: binding, Thermoanaerobacter tengcongensis
Procedure: To determine reagent compatibility with the disclosed system, an additive screen was performed, wherein the Kd between RPtag (large) and 3 RPtag (small) peptides—native, Nd8Cd4, and Nd2p5ae18a—were tested in the presence of several common buffer additives (Table 3).

RPtag(small) (Nd2Cd4) = test: Fluorescence anisotropy Kd of RPtag(large) variants for control RPtag(small) peptide Nd2Cd4; format: binding, Thermoanaerobacter tengcongensis; settings: 2 nM rhodamine labeled Nd2Cd4
Procedure: An initial Kd was measured between RPtag(large) and the PDGF-β N-terminal peptide (FIG. 16). […] Next, competition experiments were performed using the mutant RPtag(small) peptide Nd2,P5A,E18A.
Kds were measured by incubating increasing concentrations of unlabeled RPtag large mutant with either 20 nM rhodamine labeled PDGF-β n-terminal peptide or 2 nM rhodamine labeled Nd2Cd4 variant of RPtag small, as it has the same number of amino acids as the PDGF-β peptide but contains the native binding sequence. After the incubation, fluorescence anisotropy was measured, and the resultant curves were fit with the equation f=y0+(ymax−y0)*(Ptot+x+Kd−sqrt((Ptot+x+Kd)^2−4*Ptot*x))/(2*Ptot), where y0 is the baseline anisotropy, ymax is the maximum anisotropy, Ptot is the fixed concentration of labeled peptide used, x is the variable concentration of protein used, and Kd is the measured Kd. Data are presented here as Ka=1/Kd. Log transformed Ka's were then compared by one-way ANOVA relative to wt control with Holm-Sidak post hoc correction. ***p<0.001, **p<0.01, *p<0.05. data are mean±SEM (n=3-4). Buffer was 50 mM Tris pH 8.0, 0.005% Tween20. For the sake of comparison, the double mutant h122l,a253a is shown on the same axes, but was not included in the statistical analysis as the experiment was done after the initial results identified the two single mutants.

[7] = test system: rhodamine labeled RPtag (small); test: Sequential boiling/recovery trials, fraction binding of RPtag (large); design: species or system Thermoanaerobacter tengcongensis
Procedure: The ability of the disclosed proteins and peptides to function after being subjected to thermal stress was also tested. Here again the RPtag (large) and anti-6×His antibody were selected for analysis. Briefly, the RPtag(large) or the anti-6×His antibody was subjected to sequential rounds of boiling and recovery. Specifically, the proteins were subjected to sequential rounds of: 5 min boiling in buffer, followed by recovery for 1 min on ice. After each round of boiling/recovery, the proteins were assayed for binding to their corresponding epitopes and the results plotted.
RPtag (large) and an the anti-His tag antibody (4E3D10H2/E3 purchased from ThermoFisher Scientific) were placed in a solution at about 0.1-1 μM [final] in a buffer of 50 mM Tris pH 8.0, 0.005% Tween20. The protein solutions were repeatedly heated for 5 min at 95° C. and then recovered on ice for 1 min. After each round of heating/cooling, an aliquot was taken and diluted to 100 nM, and incubated with 100 nM either rhodamine labeled RPtag (small) or rhodamine labeled 6x-His peptide (sequence: Rhodamine-GHHHHHH), and the fluorescence anisotropy measured. Fraction binding was calculated via the equation F=(r−rmin)/(r0−rmin) where F is the fraction binding, r is the measured anisotropy, rmin is the anisotropy in the absence of binding protein, and r0 is the anisotropy before any boiling trials.

Sequence of Bovine Serum Albumin (BSA) (Bos taurus, UniProt P02769) (P02769 25-607): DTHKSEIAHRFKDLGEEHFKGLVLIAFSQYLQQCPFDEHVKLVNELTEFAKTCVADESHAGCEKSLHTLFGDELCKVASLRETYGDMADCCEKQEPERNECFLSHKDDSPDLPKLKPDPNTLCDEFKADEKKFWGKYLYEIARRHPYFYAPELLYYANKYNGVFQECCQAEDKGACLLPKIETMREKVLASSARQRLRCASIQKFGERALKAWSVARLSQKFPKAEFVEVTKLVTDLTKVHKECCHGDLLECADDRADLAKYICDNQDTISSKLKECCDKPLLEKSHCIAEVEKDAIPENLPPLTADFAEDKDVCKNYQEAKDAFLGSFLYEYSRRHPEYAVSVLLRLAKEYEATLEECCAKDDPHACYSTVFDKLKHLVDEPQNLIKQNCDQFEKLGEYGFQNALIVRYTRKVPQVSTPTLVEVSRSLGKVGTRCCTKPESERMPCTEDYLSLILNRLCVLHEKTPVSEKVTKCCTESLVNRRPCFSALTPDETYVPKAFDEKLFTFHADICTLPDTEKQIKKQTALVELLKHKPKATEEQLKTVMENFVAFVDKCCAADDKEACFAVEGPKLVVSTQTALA

Molecule | pH of relative maximum affinity (RPtag(large)) [pH] | slope of initial velocity line using S (total) (RPtag (large) [1]; 1000 nM RPtag(large)) [min⁻¹] | rate constant for conversion of S to S* from linear fit of initial rate plot, S (corrected) (RPtag (large) [1]; 1000 nM RPtag(large), 0.6 to 10 nM RPtag (small)) [min⁻¹] | dissociation rate constant from first order rate law fit (RPtag (large) [1]; 0.1 mM unlabeled native RPtag small competitor, n=15) [min⁻¹] | koff (RPtag (large) [1]; LS dissociation, unlabeled competitor peptide, listed as native RPtag (small)) [s⁻¹] | kr (RPtag (large) [1]; S* to S reverse rate constant, calculated from Keq and kf, listed as native RPtag (small)) [min⁻¹] | kon (M^−1 min^−1 ) (×10^7) (RPtag (large) [1]; S*-LS transition, calculated from measured koff and Kd) | selectivity over non-specific (BSA) interaction [2] | binding to BSA ([3]; listed as RPtag (small)) | binding to BSA ([3]; listed as native RPtag (small)) | elution behaviour with 100 mM Tris pH 8.0, 3 M imidazole [4] | Kd (RPtag (large) [5]) | Kd (RPtag (large) [6]; Gdn-HCl (6M)) [nM] | Kd (RPtag (large) [6]; SDS (2%)) [nM] | Kd (RPtag (large) [6]; imidazole (3M)) [nM] | Kd (RPtag (large) [6]; urea (8M)) [nM] | Kd (RPtag(small) (Nd2Cd4)) [nM] | stability relative to commercially available products [7]
GEKIPNFIPAELKLITKENVQ [native] | ~8 | 0.035 | 0.091 | 0.012 ± 0.002 | 0.000152 | 0.056 | 4.3 ± 0.1 ×10^7 M^−1 min^−1 | > 50,000 fold | no detectable binding | no interaction was detected | diffuse band | 0.2 nM and ~0.2 nM | > 10000 | > 10000 | > 10000 | > 10000 | – | –
RPtag (large): RB protein fragment a.a. 1-257 from Thermoanaerobacter tengcongensis; SEQ ID NO: 3 with tags and Cys (protein, tags and added Cys) MGSSCHHHHHHSQDPNSSSMKEGKTIGLVISTLNNPFFVTLKNGAEEKAKELGYKIIVEDSQNDSSKELSNVEDLIQQKVDVLLINPVDSDAVVTAIKEANSKNIPVITIDRSANGGDVVSHIASDNVKGGEMAAEFIAKALKGKGNVVELEGIPGASAARDRGKGFDEAIAKYPDIKIVAKQAADFDRSKGLSVMENILQAQPKIDAVFAQNDEMALGAIKAIEAANRQGIIVVGFDGTEDALKAIKEGKMAATIAQQPALMGSLGVEMADKYLK | – | – | – | – | – | – | – | – | – | – | – | – | – | – | – | – | 0.41 | at least 10 fold
